Numbers after ± are expanded uncertainties.
Details: Liquid, Closed cell (Static) method

For `CCCO` [propan-1-ol], the “vapor or sublimation pressure” value (383.2 K) was 160.4 ± 3.5 kPa, the “vapor or sublimation pressure” value (393.2 K) was 223.3 ± 4.7 kPa and the “vapor or sublimation pressure” value (403.2 K) was 303.1 ± 6.3 kPa. For the same compound, the “vapor or sublimation pressure” value (413.2 K) was 406.6 ± 8.5 kPa and the “vapor or sublimation pressure” value (423.2 K) was 546.1 ± 11 kPa.
